Values of other authors, collected in US20160206641A1, “RAPIDLY-[…] FILM FORMULATION OF WATER SOLUBLE […] GLYCOSIDE FOR THE TREATMENT OF […] DISEASE” (LUMINUS BIOSCIENCES INC., priority 2013, published 2016).
≈ marks a conversion by molar mass, not a printed value.

C[C@@H]1O[C@@H](O[C@H]2C[C@@H](O)[C@]3(CO)[C@H]4[C@H](O)C[C@]5(C)[C@@H](C6=CC(=O)OC6)CC[C@]5(O)[C@@H]4CC[C@]3(O)C2)[C@H](O)[C@H](O)[C@H]1O [ouabain, 1β,3β,5β,11α,14,19-Hexahydroxycard-20(22)-enolide 3-(6-deoxy-α-L-mannopyranoside)]
solubility in cold water (cold water): 10 mg/mL (≈ 17.1 mM)
solubility in hot water (hot water): more than 50 mg/ml
